Data as given in paper PMC6934184, “Selective DNA-PKcs inhibition extends the therapeutic index of localized radiotherapy and chemotherapy” (The Journal of Clinical Investigation, 2019).

Target: T1, GRK1 (Homo sapiens, UniProt Q15835)
T1 construct: purchased Thermo Fisher Scientific (Life Technologies) SelectScreen
Experiment: SelectScreen LanthaScreen
Format: binding
Conditions: read-out: % displacement
Summary of the method: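 Percent values come from Thermo SelectScreen profiling of NU5455, combining activity and binding assays. CSF1R was run in Z'LYTE format at Km app ATP, and CAMK1 in Adapta format with ATP listed at 10.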

T1 sequence (Q15835 whole entry): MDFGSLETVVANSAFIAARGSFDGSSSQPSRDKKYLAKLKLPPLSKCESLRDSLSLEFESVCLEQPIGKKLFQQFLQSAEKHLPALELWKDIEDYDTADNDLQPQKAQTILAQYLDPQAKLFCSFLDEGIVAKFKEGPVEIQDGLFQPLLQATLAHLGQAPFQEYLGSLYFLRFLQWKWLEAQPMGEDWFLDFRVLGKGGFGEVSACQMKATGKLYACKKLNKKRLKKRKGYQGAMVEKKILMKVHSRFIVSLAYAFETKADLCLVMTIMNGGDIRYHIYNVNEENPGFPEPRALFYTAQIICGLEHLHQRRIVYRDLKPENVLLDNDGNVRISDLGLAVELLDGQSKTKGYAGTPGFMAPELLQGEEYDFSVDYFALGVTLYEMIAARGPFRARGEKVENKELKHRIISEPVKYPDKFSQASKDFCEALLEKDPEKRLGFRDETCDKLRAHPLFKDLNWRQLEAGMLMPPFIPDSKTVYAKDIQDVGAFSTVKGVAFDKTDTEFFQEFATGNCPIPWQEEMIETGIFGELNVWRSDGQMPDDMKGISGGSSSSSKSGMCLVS

`CN(C(=O)CN1CCOCC1)c1ccc2sc3c(-c4cccc5c(=O)cc(N6CC7CCC(C6)O7)oc45)cccc3c2c1` [NU5455] showed an inhibition at 1 µM of 1.3%.
